Results on two molecules are retold here after patent publication US8501166B2, “Pyrimidinyl indole compounds” (Hutchison Medipharma Limited, priority 2010, dated 2013).

One may read the IC50 as the concentration needed to halve the response being measured. A low value points to greater potency. The term ED50 denotes the dose at which the effect has come halfway, by size or by number of responders. Higher therefore signals a need for a large dose. One may read the EC50 as the concentration giving half of the maximal effect.

Each structure is given as a SMILES string. Structures can show the parent of a compound that is named as a salt.

The target of assay [1] is T1, IKKβ (Homo sapiens, UniProt O14920).
T1 sequence (O14920 1-756): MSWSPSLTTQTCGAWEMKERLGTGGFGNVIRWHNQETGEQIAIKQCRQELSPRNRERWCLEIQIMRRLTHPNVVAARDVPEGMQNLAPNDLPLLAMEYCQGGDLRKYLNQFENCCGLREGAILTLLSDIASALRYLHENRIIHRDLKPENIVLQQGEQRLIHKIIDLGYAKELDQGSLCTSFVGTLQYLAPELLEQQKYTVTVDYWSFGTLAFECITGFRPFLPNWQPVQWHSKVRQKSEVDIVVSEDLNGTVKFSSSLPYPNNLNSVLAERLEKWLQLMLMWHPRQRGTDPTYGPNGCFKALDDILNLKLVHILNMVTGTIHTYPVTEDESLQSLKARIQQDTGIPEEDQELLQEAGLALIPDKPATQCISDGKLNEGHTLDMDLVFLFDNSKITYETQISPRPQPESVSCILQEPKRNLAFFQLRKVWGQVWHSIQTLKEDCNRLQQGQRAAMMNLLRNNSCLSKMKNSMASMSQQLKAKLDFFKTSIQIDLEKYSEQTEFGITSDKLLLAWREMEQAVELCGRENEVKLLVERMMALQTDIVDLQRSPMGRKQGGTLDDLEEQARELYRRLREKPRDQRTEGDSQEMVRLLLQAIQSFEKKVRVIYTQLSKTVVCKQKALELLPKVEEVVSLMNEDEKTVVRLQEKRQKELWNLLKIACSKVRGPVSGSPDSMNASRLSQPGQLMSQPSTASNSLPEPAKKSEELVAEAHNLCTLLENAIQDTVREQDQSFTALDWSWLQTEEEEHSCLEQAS
Kind of assay: IKKβ kinase assay (IKKβ-Inhibitor Screening Kit, ELISA). The conditions noted are these: IKKβ-Inhibitor Screening Kit (Calbiochem), GST-IκBα substrate. The format is biochemical. On the procedure:
The IKKβ kinase assay is used to assess the effect of a compound of the present invention on the enzymatic activity of IKKβ kinase. The IKKβ kinase assay is performed in vitro using an IKKβ-Inhibitor Screening Kit (Calbiochem., Cat.No. CBA044). All reactions (50 μL) are started by adding 10 μL of kinase buffer (kit component, No. JA9130), 10 μL of GST-IKBa substrate (IKKb substrate, kit component, No. JA9127), 10 μL of IKKβ (2.5 ng/well, kit component, No. 481404), 10 μL of the test compound (DMSO solution) or H2O, and 10 μL of ATP/MgCl2 (kit component, No. JA7914) and then incubating at 30° C. for 30 min. The contents of the wells are then discarded. Each well is washed 3 times with 200 μL 1× wash buffer (kit component, NO. JA1617, 1:20 dilution). 100 μL of anti-phospho IκBα (Ser^32/Ser^36) antibody conjugate (kit component, No. JA9126) is added to each well and incubated at room temperature for 1 h. Then the wells are washed 3 times with 1× wash buffer (kit component, NO. JA1617, 1:20 dilution), […] and 100 μL HRP-conjugate (kit component, No. JA7643) is added to each well and incubated at room temperature for 1 h. Then the wells are washed 3 times with 200 μL 1× wash buffer (kit component, NO. JA1617, 1:20 dilution) and 100 μL TMB substrate conjugate (kit component, No. JA1608) is added to each well. The plate is incubated at room temperature until the color changes. […]
(An ELISA detects its analyte on a solid surface through an enzyme-linked reagent.)

The test system of assay [2] is LPS-induced plasma TNFα production. Kind of assay: LPS-induced cytokine production in rat plasma. The assay is classed as in vivo, Lewis rats. The conditions noted are these: oral 1 h before LPS 0.4 mg/kg i.p. How it is done:
Alternately, the compound is screened for its ability to inhibit the LPS-induced cytokine production in rat plasma according to the method reported in the literature (Ziegelbauer K, Gantner F, Lukacs N W, et al. Br J. Pharmacol. 2005,145(2):178-92). Briefly, Lewis rats (male, body weight 140 g-180 g) are used in the experiments. Animals (8/group) are given 1 to 100 mg/kg of the testing compound (suspension in 35% solutol & 60% PEG400 & 5% PG) or vehicle by oral gavage at 1 h prior to intraperitoneal administration of LPS 0.4 mg/kg. Ninety minutes after the intraperitoneal administration of LPS, blood is collected in heparin anticoagulated tubes to measure TNFα using R&D System ELISA Kit based on the general Kit protocols. The plasma sample is diluted 100 fold with the dilution buffer and 50 μL of diluted sample is used in each measurement. The plate is read on a SPECTRAMAX® M2e Plus Plate Reader and TNFα levels are analyzed based on the standard curve. The drug levels in plasma are measured with LC-MS-MS. […] Alternately, the compound is screened for its ability to inhibit the LPS-induced cytokine production in mouse plasma. Balb/c mice (female, body weight 18-20 g) are used in the experiments. […] The plate is read on a SPECTRMAX® M2e Plus Plate Reader and the data is analyzed using a standard curve.

On to `O=C(NC1CC1)c1cccc2[nH]c(-c3nc(N[C@@H]4CCC[C@@H]4O)ncc3Cl)cc12` [Example 1, 2-{5-Chloro-2-[(1R,2S)-2-hydroxycyclopentylamino]pyrimidin-4-yl}-N-cyclopropyl-1H-indole-4-carboxamide hydrochloride], for which 15 nM corresponded to half-maximal inhibition in assay [1] (IC50). On to `Cl.O=C(NC1CC1)c1cccc2[nH]c(-c3nc(N[C@@H]4CCC[C@H]4O)ncc3Cl)cc12` [Example 2, 2-{5-Chloro-2-[(1R,2R)-2-hydroxycyclopentylamino]pyrimidin-4-yl}-N-cyclopropyl-1H-indole-4-carboxamide hydrochloride], for which the 50% effect level in assay [2] (ED50) was put at a dose of 19.8 ± 10.9 mg/kg. The EC50 in assay [2] (read-out: EC50, plasma TNFα production (drug level in plasma)) was found to be 4.04 ± 1.28 µg/mL.
